Publication PMC8998675 (Molecular Pharmacology, 2021)

What was measured:
β2AR [1] = target: T1, β2AR (Homo sapiens, UniProt P07550); test: 35S-GTPγS binding to heterotrimeric Gs (SPA), β2AR in HDL; details: epinephrine (10 µM) stimulation; cmpd-6 or A9 20 µM, Nb6B9 1 µM, ICI-118551 10 µM
Procedure: After incubations, the β2AR-Gs complexes were captured on YSi beads.

β2AR [2] = target: T1, β2AR; test: 125I-CYP competition radioligand binding at β2AR in HDL particles (nanodiscs)

T1 sequence (P07550 whole entry): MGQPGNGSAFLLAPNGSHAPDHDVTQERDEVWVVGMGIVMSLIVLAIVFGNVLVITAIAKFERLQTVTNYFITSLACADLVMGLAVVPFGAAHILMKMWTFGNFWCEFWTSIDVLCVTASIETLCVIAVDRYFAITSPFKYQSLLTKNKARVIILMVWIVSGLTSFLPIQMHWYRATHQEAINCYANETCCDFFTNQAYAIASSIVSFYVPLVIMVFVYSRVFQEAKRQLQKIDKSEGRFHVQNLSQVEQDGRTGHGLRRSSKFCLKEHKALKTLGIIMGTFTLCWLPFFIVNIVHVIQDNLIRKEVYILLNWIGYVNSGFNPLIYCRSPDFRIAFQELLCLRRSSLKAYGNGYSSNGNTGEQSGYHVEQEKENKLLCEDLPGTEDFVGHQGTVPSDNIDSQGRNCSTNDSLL

CC(C)N(C)S(=O)(=O)c1ccc(Sc2ccc(C(N)=O)cc2)c(C(=O)N[C@@H](CC(N)=O)Cc2ccc(C(C)(C)C)cc2)c1 [A9]
35S-GTPγS binding to Gs / activation of Gs (β2AR [1]): markedly blocks the agonist-stimulated activation of Gs | Kd (β2AR [2]; LogKT, dissociation constant of PAM, carvedilol-bound β2AR): 2950 nM | PAM activity with agonists including epinephrine (affinity shift) (β2AR [2]; analog 20 µM, Fig. 5A(i), 5C): absolutely no PAM activity | cooperativity with carvedilol (affinity shift) (β2AR [2]; analog 20 µM, Fig. 5A(ii)): retains its positive cooperativity with carvedilol | Kd (β2AR [2]; binding affinity of modulator for the receptor in the presence of carvedilol, from shifts of carvedilol LogIC50 versus modulator dose): ~2900 nM
